{"source": "ChEMBL document CHEMBL1144628", "about": "“6-Hydrazinopurine 2'-methyl ribonucleosides and their 5'-monophosphate prodrugs as potent hepatitis C virus inhibitors” (Bioorg Med Chem Lett, 2007)", "key": {"[1]": {"tested_on": "Hepatitis C virus", "test": "Antiviral activity against HCV by replicon assay", "assay_type": "functional, organism-based, Hepacivirus hominis"}, "[2]": {"tested_on": "Plasma", "test": "Stability in human plasma", "assay_type": "ADME, cell-free"}, "[3]": {"test": "Stability in human simulated gastric fluid", "assay_type": "ADME, Stomach", "conditions": "simulated gi fluid"}, "[4]": {"test": "Stability in human simulated intestinal fluid at 1 mg/mL after 30 mins", "assay_type": "ADME", "conditions": "read-out: Stability"}, "[5]": {"test": "Stability in human simulated intestinal fluid at 1 mg/mL after 60 mins", "assay_type": "ADME", "conditions": "read-out: Stability"}, "[6]": {"test": "Stability in human simulated intestinal fluid at 1 mg/mL after 2 hrs", "assay_type": "ADME", "conditions": "simulated gi fluid"}}, "data": [{"smiles": "COC(=O)C(C)NP(=O)(OC[C@H]1O[C@@H](n2cnc3c(N(C)NS(C)(=O)=O)nc(N)nc32)[C@](C)(O)[C@@H]1O)Oc1ccccc1", "note": "(stereo not given in full)", "values": [{"measurement": "EC50", "setting": "[1]", "result": 1.2, "unit": "µM"}]}, {"smiles": "COC(=O)C(C)NP(=O)(OC[C@H]1O[C@@H](n2cnc3c(N(C)NS(C)(=O)=O)nc(N)nc32)[C@](C)(O)[C@@H]1O)Oc1ccc(Cl)cc1", "note": "(stereo not given in full)", "values": [{"measurement": "EC50", "setting": "[1]", "result": 0.8, "unit": "µM"}]}, {"smiles": "CC(NP(=O)(OC[C@H]1O[C@@H](n2cnc3c(N(C)NS(C)(=O)=O)nc(N)nc32)[C@](C)(O)[C@@H]1O)Oc1ccccc1)C(=O)OCc1ccccc1", "note": "(stereo not given in full)", "values": [{"measurement": "EC50", "setting": "[1]", "result": 2.2, "unit": "µM"}, {"measurement": "Stability", "setting": "[2]", "result": "Stable"}, {"measurement": "Stability", "setting": "[3]", "result": "Stable"}, {"measurement": "remaining at 0.5 h, 1 mg/mL", "setting": "[4]", "result": 0, "unit": "%"}, {"measurement": "remaining at 1 h, 1 mg/mL", "setting": "[5]", "result": 0, "unit": "%"}]}, {"smiles": "CN(NS(C)(=O)=O)c1ncnc2c1ncn2[C@@H]1O[C@H](COP(=O)(OCCSC(=O)C(C)(C)C)OCCSC(=O)C(C)(C)C)[C@@H](O)[C@@]1(C)O", "values": [{"measurement": "EC50", "setting": "[1]", "result": 0.06, "unit": "µM"}]}, {"smiles": "CN(NS(C)(=O)=O)c1nc(N)nc2c1ncn2[C@@H]1O[C@H](CO)[C@@H](O)[C@@]1(C)O", "values": [{"measurement": "EC50", "setting": "[1]", "result": 92, "unit": "µM"}]}, {"smiles": "CN(NS(C)(=O)=O)c1ncnc2c1ncn2[C@@H]1O[C@H](CO)[C@@H](O)[C@@]1(C)O", "values": [{"measurement": "EC50", "setting": "[1]", "result": 300, "unit": "µM"}]}, {"smiles": "COC(=O)C(C)NP(=O)(OC[C@H]1O[C@@H](n2cnc3c(N(C)NS(C)(=O)=O)ncnc32)[C@](C)(O)[C@@H]1O)Oc1ccc(Cl)cc1", "note": "(stereo not given in full)", "values": [{"measurement": "EC50", "setting": "[1]", "result": 2.6, "unit": "µM"}]}, {"smiles": "COC(=O)CNP(=O)(OC[C@H]1O[C@@H](n2cnc3c(N(C)NS(C)(=O)=O)nc(N)nc32)[C@](C)(O)[C@@H]1O)Oc1ccccc1", "note": "(stereo not given in full)", "values": [{"measurement": "EC50", "setting": "[1]", "result": 22, "unit": "µM"}, {"measurement": "Stability", "setting": "[2]", "result": "Stable"}, {"measurement": "Stability", "setting": "[3]", "result": "Stable"}, {"measurement": "remaining at 0.5 h, 1 mg/mL", "setting": "[4]", "result": 0, "unit": "%"}, {"measurement": "remaining at 1 h, 1 mg/mL", "setting": "[5]", "result": 0, "unit": "%"}]}, {"smiles": "COC(=O)CNP(=O)(OC[C@H]1O[C@@H](n2cnc3c(N(C)NS(C)(=O)=O)nc(N)nc32)[C@](C)(O)[C@@H]1O)Oc1ccc(Cl)cc1", "note": "(stereo not given in full)", "values": [{"measurement": "EC50", "setting": "[1]", "result": 8.9, "unit": "µM"}, {"measurement": "Stability", "setting": "[2]", "result": "Stable"}, {"measurement": "Stability", "setting": "[3]", "result": "Stable"}, {"measurement": "remaining at 0.5 h, 1 mg/mL", "setting": "[4]", "result": 0, "unit": "%"}, {"measurement": "remaining at 1 h, 1 mg/mL", "setting": "[5]", "result": 0, "unit": "%"}]}, {"smiles": "CC(NP(=O)(OC[C@H]1O[C@@H](n2cnc3c(N(C)NS(C)(=O)=O)ncnc32)[C@](C)(O)[C@@H]1O)Oc1ccccc1)C(=O)OCc1ccccc1", "note": "(stereo not given in full)", "values": [{"measurement": "EC50", "setting": "[1]", "result": 2.9, "unit": "µM"}, {"measurement": "Stability", "setting": "[2]", "result": "Stable"}, {"measurement": "Stability", "setting": "[3]", "result": "Stable"}, {"measurement": "remaining at 0.5 h, 1 mg/mL", "setting": "[4]", "result": 0, "unit": "%"}, {"measurement": "remaining at 1 h, 1 mg/mL", "setting": "[5]", "result": 0, "unit": "%"}]}, {"smiles": "CC(NP(=O)(OC[C@H]1O[C@@H](n2cnc3c(N(C)NS(C)(=O)=O)nc(N)nc32)[C@](C)(O)[C@@H]1O)Oc1ccc(Cl)cc1)C(=O)OCc1ccccc1", "note": "(stereo not given in full)", "values": [{"measurement": "EC50", "setting": "[1]", "result": 0.11, "unit": "µM"}, {"measurement": "Stability", "setting": "[2]", "result": "Stable"}, {"measurement": "Stability", "setting": "[3]", "result": "Stable"}, {"measurement": "remaining at 0.5 h, 1 mg/mL", "setting": "[4]", "result": 0, "unit": "%"}, {"measurement": "remaining at 1 h, 1 mg/mL", "setting": "[5]", "result": 0, "unit": "%"}]}, {"smiles": "CC(C)OC(=O)C(C)NP(=O)(OC[C@H]1O[C@@H](n2cnc3c(N(C)NS(C)(=O)=O)ncnc32)[C@](C)(O)[C@@H]1O)Oc1ccc(Cl)cc1", "note": "(stereo not given in full)", "values": [{"measurement": "EC50", "setting": "[1]", "result": 2.5, "unit": "µM"}, {"measurement": "Stability", "setting": "[2]", "result": "Stable"}, {"measurement": "Stability", "setting": "[3]", "result": "Stable"}, {"measurement": "remaining at 0.5 h, 1 mg/mL", "setting": "[4]", "result": 67, "unit": "%"}, {"measurement": "remaining at 1 h, 1 mg/mL", "setting": "[5]", "result": 48, "unit": "%"}]}, {"smiles": "COC(=O)CNP(=O)(OC[C@H]1O[C@@H](n2cnc3c(N(C)NS(C)(=O)=O)ncnc32)[C@](C)(O)[C@@H]1O)Oc1ccccc1", "note": "(stereo not given in full)", "values": [{"measurement": "EC50", "setting": "[1]", "result": 220, "unit": "µM"}, {"measurement": "Stability", "setting": "[2]", "result": "Stable"}, {"measurement": "Stability", "setting": "[3]", "result": "Stable"}, {"measurement": "remaining at 0.5 h, 1 mg/mL", "setting": "[4]", "result": 0, "unit": "%"}, {"measurement": "remaining at 1 h, 1 mg/mL", "setting": "[5]", "result": 0, "unit": "%"}]}, {"smiles": "CC(NP(=O)(OC[C@H]1O[C@@H](n2cnc3c(N(C)NS(C)(=O)=O)ncnc32)[C@](C)(O)[C@@H]1O)Oc1ccc(Cl)cc1)C(=O)OCc1ccccc1", "note": "(stereo not given in full)", "values": [{"measurement": "EC50", "setting": "[1]", "result": 0.68, "unit": "µM"}, {"measurement": "Stability", "setting": "[2]", "result": "Stable"}, {"measurement": "Stability", "setting": "[3]", "result": "Stable"}, {"measurement": "remaining at 0.5 h, 1 mg/mL", "setting": "[4]", "result": 0, "unit": "%"}, {"measurement": "remaining at 1 h, 1 mg/mL", "setting": "[5]", "result": 0, "unit": "%"}]}, {"smiles": "CC(C)OC(=O)C(C)NP(=O)(OC[C@H]1O[C@@H](n2cnc3c(N(C)NS(C)(=O)=O)nc(N)nc32)[C@](C)(O)[C@@H]1O)Oc1ccc(Cl)cc1", "note": "(stereo not given in full)", "values": [{"measurement": "EC50", "setting": "[1]", "result": 0.27, "unit": "µM"}, {"measurement": "Stability", "setting": "[2]", "result": "Stable"}, {"measurement": "Stability", "setting": "[3]", "result": "Stable"}, {"measurement": "remaining at 0.5 h, 1 mg/mL", "setting": "[4]", "result": 61, "unit": "%"}, {"measurement": "remaining at 1 h, 1 mg/mL", "setting": "[5]", "result": 37, "unit": "%"}]}, {"smiles": "COC(=O)C(C)(C)NP(=O)(OC[C@H]1O[C@@H](n2cnc3c(N(C)NS(C)(=O)=O)ncnc32)[C@](C)(O)[C@@H]1O)Oc1ccc(Cl)cc1", "note": "(stereo not given in full)", "values": [{"measurement": "EC50", "setting": "[1]", "result": 1.4, "unit": "µM"}, {"measurement": "Stability", "setting": "[2]", "result": "Stable"}, {"measurement": "Stability", "setting": "[3]", "result": "Stable"}, {"measurement": "remaining at 0.5 h, 1 mg/mL", "setting": "[4]", "result": 100, "unit": "%"}, {"measurement": "Stability", "setting": "[6]", "result": "Stable"}, {"measurement": "remaining at 1 h, 1 mg/mL", "setting": "[5]", "result": 100, "unit": "%"}]}, {"smiles": "COC(=O)C(C)(C)NP(=O)(OC[C@H]1O[C@@H](n2cnc3c(N(C)NS(C)(=O)=O)nc(N)nc32)[C@](C)(O)[C@@H]1O)Oc1ccc(Cl)cc1", "note": "(stereo not given in full)", "values": [{"measurement": "EC50", "setting": "[1]", "result": 0.26, "unit": "µM"}, {"measurement": "Stability", "setting": "[2]", "result": "Stable"}, {"measurement": "Stability", "setting": "[3]", "result": "Stable"}, {"measurement": "remaining at 0.5 h, 1 mg/mL", "setting": "[4]", "result": 100, "unit": "%"}, {"measurement": "Stability", "setting": "[6]", "result": "Stable"}, {"measurement": "remaining at 1 h, 1 mg/mL", "setting": "[5]", "result": 100, "unit": "%"}]}, {"smiles": "COC(=O)C(C)NP(=O)(OC[C@H]1O[C@@H](n2cnc3c(N(C)NS(C)(=O)=O)ncnc32)[C@](C)(O)[C@@H]1O)Oc1ccccc1", "note": "(stereo not given in full)", "values": [{"measurement": "EC50", "setting": "[1]", "result": 26, "unit": "µM"}]}, {"smiles": "CN(NS(C)(=O)=O)c1nc(N)nc2c1ncn2[C@@H]1O[C@H](COP(=O)(OCCSC(=O)C(C)(C)C)OCCSC(=O)C(C)(C)C)[C@@H](O)[C@@]1(C)O", "values": [{"measurement": "EC50", "setting": "[1]", "result": 0.024, "unit": "µM"}]}, {"smiles": "COC(=O)CNP(=O)(OC[C@H]1O[C@@H](n2cnc3c(N(C)NS(C)(=O)=O)ncnc32)[C@](C)(O)[C@@H]1O)Oc1ccc(Cl)cc1", "note": "(stereo not given in full)", "values": [{"measurement": "EC50", "setting": "[1]", "result": 39, "unit": "µM"}, {"measurement": "Stability", "setting": "[2]", "result": "Stable"}, {"measurement": "Stability", "setting": "[3]", "result": "Stable"}, {"measurement": "remaining at 0.5 h, 1 mg/mL", "setting": "[4]", "result": 0, "unit": "%"}, {"measurement": "remaining at 1 h, 1 mg/mL", "setting": "[5]", "result": 0, "unit": "%"}]}]}
